Experimental data taken from article PMC8370248, “Key Metabolic Enzymes Involved in Remdesivir Activation in Human Lung Cells” (Antimicrobial Agents and Chemotherapy, 2021).
Where “and” joins values, the source holds several entries; their conditions need not be identical. Identical values can stand only once. Like-named read-outs stand apart in the source and are kept apart here.

Key:
CES2 = target: T1, CES2 (Homo sapiens, UniProt O00748); assay: CES2-catalyzed hydrolysis of RDV and control (substrate disappearance, LC-MS); assay type: in vitro ADME; conditions: for half-life at 1 μM: human, CES2 Supersomes (protein-enriched subcellular fraction)
T1 construct: purchased Corning Incorporated (Corning, NY); host or cells: baculovirus-infected insect cells (microsomal fraction, Supersomes)
T1 sequence (O00748 27-559): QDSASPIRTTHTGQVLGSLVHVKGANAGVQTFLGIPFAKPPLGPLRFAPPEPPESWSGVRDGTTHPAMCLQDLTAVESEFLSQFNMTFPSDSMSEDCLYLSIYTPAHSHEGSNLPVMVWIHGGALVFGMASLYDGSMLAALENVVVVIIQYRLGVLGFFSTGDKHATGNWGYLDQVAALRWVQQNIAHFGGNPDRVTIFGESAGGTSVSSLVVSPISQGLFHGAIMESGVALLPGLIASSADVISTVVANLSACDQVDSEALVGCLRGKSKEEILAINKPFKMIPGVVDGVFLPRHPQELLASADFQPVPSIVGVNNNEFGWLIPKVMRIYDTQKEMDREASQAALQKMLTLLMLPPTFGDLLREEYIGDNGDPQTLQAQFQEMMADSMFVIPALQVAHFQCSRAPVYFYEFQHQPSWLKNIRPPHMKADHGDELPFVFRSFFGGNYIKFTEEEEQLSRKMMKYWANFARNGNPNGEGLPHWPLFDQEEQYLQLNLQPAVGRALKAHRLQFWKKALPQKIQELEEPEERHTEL
Method: (§1) The catalytic activity of carboxylesterase 1b (CES1b), carboxylesterase 1c (CES1c), CES2, and CatA toward RDV hydrolysis was measured using protein-enriched subcellular fraction (CES isozymes) or recombinant proteins (CatA). The reaction rates were determined by monitoring the disappearance of RDV using a liquid chromatography-mass spectrometry (LC-MS) method.
(§2) RDV or positive-control substrates (oseltamivir for CES1 or procaine for CES2) were incubated with individual Supersome preparations (final CES concentration, 1.5 mg/ml) in 0.1 M potassium phosphate buffer (pH 7.4) at 37°C. Substrates were added to a final concentration of 1 μM to initiate the reaction. The final incubation volume was 250 μl. Aliquots were removed after incubation for 0, 10, 30, 60, and 120 min. The reactions were stopped by the addition of the quench solution containing the LC-MS internal standard (IS) (labetalol). Following protein precipitation and centrifugation, 150 μl of supernatant was dried down and reconstituted with 250 μl water. All samples were analyzed by an LC-MS, and the analyte/internal standard peak area ratio (PAR) values were used for quantification. Disappearance of RDV or positive-control compounds was monitored over the incubation time period. Three experiments were conducted with two replicates in each experiment, and data are reported as averages from the three experiments.
(§3) In all studies apart from those with CES1 and CatA with enzyme inhibitors, samples (10-μl aliquots) were injected with a Thermo Scientific autosampler. The LC instrumentation consisted of a Thermo Scientific Dionex UltiMate 3000 RS pump, and the LC column was a Waters Acquity UPLC BEH C18 (1.7 μm particle size, 2.1 by 50 mm). Mobile phases A and B were water 99.9% (vol/vol) containing 0.1% (vol/vol) formic acid, and acetonitrile 99.9% (vol/vol) containing 0.1% (vol/vol) formic acid, respectively, pumped at 0.2 ml/minute. Elution was achieved by a series of linear gradients over 2.33 min followed by reequilibration for 2.57 min. The MS instrument was a Thermo Q Exactive Hybrid Quadrupole-Orbitrap operating in positive or negative ionization mode as appropriate. This was calibrated on a weekly basis, and data were processed with GMSU 8.4.66 software by Gubbs Inc. (Alpharetta, GA). Mass tolerance of 5 ppm was used.

SARS-CoV-2 = assay: microbe, parasite or virus in culture; assay type: cell-based
CES1b = target: T2, CES1b (Homo sapiens, UniProt P23141); assay: CES1b-catalyzed hydrolysis of RDV and control (substrate disappearance, LC-MS); assay type: in vitro ADME
T2 construct: purchased Corning Incorporated (Corning, NY); host or cells: baculovirus-infected insect cells (microsomal fraction, Supersomes)
T2 sequence (P23141 18-567): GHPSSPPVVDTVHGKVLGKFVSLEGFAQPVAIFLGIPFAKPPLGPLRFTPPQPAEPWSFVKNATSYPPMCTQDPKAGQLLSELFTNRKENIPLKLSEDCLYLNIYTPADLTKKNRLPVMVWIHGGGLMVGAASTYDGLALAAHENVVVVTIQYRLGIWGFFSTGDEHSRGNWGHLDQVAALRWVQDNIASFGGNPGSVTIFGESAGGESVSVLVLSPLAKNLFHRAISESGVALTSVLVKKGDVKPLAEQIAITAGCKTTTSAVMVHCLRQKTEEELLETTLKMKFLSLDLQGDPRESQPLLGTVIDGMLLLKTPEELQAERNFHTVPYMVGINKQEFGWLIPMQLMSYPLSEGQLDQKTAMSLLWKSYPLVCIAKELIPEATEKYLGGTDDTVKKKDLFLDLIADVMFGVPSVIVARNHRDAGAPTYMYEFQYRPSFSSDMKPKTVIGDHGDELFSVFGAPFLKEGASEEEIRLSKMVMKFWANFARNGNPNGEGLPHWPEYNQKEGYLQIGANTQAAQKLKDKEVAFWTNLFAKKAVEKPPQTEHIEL
Method: as §1, §2, §3

CatA = target: T3, CatA (Homo sapiens, UniProt P10619); assay: CatA-catalyzed hydrolysis of RDV and control (substrate disappearance, LC-MS)
T3 sequence (P10619 29-326 limits assumed): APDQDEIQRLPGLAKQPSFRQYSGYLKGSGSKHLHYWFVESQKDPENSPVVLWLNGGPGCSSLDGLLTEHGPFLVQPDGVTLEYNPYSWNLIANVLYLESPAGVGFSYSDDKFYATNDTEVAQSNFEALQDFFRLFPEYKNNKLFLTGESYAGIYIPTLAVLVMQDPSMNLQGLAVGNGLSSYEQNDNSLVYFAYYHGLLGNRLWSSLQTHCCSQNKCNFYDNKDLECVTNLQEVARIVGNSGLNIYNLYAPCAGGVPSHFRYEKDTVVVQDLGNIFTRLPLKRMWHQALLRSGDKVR
T3 sequence (P10619 327-480 limits assumed): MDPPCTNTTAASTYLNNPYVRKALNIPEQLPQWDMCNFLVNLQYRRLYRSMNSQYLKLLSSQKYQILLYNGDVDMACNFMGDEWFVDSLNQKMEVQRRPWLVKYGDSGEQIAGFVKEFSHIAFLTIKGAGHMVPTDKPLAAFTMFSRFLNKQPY
Method: as §1
Following protein precipitation and centrifugation, 150 μl of supernatant was dried down and reconstituted with 250 μl water. […] Three experiments were conducted with two replicates in each experiment, and data are reported as averages from the three experiments.
as §3

Question: Which results are given for `CCC(CC)COC(=O)[C@H](C)N[P@](=O)(OC[C@H]1O[C@@](C#N)(c2ccc3c(N)ncnn23)[C@H](O)[C@@H]1O)Oc1ccccc1` [RDV, Remdesivir]?
Answer: Activity for amidate ester cleavage, CES2 (CES2; 1 μM substrate, CES 1.5 mg/ml, pH 7.4, 37°C): 2.8 ± 2.6 × 10^−4 nmol/min/mg; half-life at 1 μM (CES2; pH 7.4, 1 μM substrate, CES 1.5 mg/ml, pH 7.4, 37°C, read-out: t1/2, CES2 (converted)): > 1000 min; half-life at 1 μM (CES2; pH 7.4, as stated in text, read-out: half-life, CES2): > 960 min; Fold-RDV EC50, RDV + 0.5 μM telaprevir (SARS-CoV-2; EC50 of combination divided by EC50 of RDV (plus DMSO), 0.5 μM telaprevir): 1.70 ± 0.19; Fold-RDV EC50, RDV + 2.5 μM telaprevir (SARS-CoV-2; EC50 of combination divided by EC50 of RDV (plus DMSO), 2.5 μM telaprevir): 2.27 ± 0.25; Fold-RDV EC50, RDV + 10 μM telaprevir (SARS-CoV-2; EC50 of combination divided by EC50 of RDV (plus DMSO), 10 μM telaprevir): 2.9 and 2.91 ± 0.65; EC50 (SARS-CoV-2; Severe acute respiratory syndrome coronavirus 2, 48 h, compound alone (plus DMSO), A549-hACE2 cells, 48 h): ~99 nM; half-life at 1 μM (CES1b; human, CES1b Supersomes (protein-enriched subcellular fraction), 1 μM substrate, CES 1.5 mg/ml, pH 7.4, 37°C, read-out: t1/2, CES1b (converted)): 9.7 min; CES1b hydrolysis rate relative to oseltamivir (CES1b; times faster than positive control oseltamivir): 2 times; Activity for amidate ester cleavage, CatA (CatA; 1 μM substrate, 5 nM CatA, pH 6.5, 37°C): 74 ± 32 nmol/min/mg; CatA hydrolysis rate relative to TAF (CatA; fold lower than hydrolysis rate of TAF): 3.4 fold; half-life at 1 μM (CatA; human, recombinant CatA (activated with CatL), pH 6.5): 43 min
